Like-named read-outs stand apart in the source and are kept apart here.

The target in one assay is T1, human PARP-1 (Homo sapiens, UniProt P09874).
T1 construct: purchased Trevigen 4667-250-01
The assay can be described thus: Biotin-Avidin PARP assay (biotinylated NAD auto-ribosylation, immobilized PARP). The format is biochemical. As to the method:
ELISA plates (96-well) were coated with recombinant human PARP-1 overnight at 4° C.
Prior to the activity assay, the plates were washed three times in PBS-T.
The control reactions were carried out in the absence of sheared DNA in order to determine background activity for the reaction(s). […] The optical density for each sample was measured at 410 nm.
The inhibitors were first dissolved in DMSO and then serially diluted in DMSO to create stock solutions which were added to the auto-ribosylation buffer to achieve the desired range of final concentrations of the inhibitors in the nanomolar to millimolar range.

For assay [1], the target named is T2, PARP (Homo sapiens, UniProt P09874).
T2 construct: purchased R&D Systems, Inc. TA5334
The assay can be described thus: commercially available [32P] NAD-based PARP assay (R&D Systems). It counts as biochemical. Particulars: [32P]-NAD based kit. As to the method: The present method was conducted in the presence of known PARP inhibitors of varying potencies, tested at a range of concentrations. The experiment was conducted to determine if the IC50 values generated by the assay of the present invention were in agreement with previously reported IC50 values for these compounds and IC50 values generated by a commercially available [^32P] NAD-based PARP assay (R&D Systems, Inc., Minneapolis, Minn., Cat#TA5334). [^32P]-NAD was obtained from Amersham Pharmacia Biotech, Piscataway, N.J.

For assay [2], the target named is T2, PARP. The conditions noted are these: reported values, see footnote; read-out: IC50 cited in the Literature; cited from earlier work.

T2 sequence (P09874 whole entry): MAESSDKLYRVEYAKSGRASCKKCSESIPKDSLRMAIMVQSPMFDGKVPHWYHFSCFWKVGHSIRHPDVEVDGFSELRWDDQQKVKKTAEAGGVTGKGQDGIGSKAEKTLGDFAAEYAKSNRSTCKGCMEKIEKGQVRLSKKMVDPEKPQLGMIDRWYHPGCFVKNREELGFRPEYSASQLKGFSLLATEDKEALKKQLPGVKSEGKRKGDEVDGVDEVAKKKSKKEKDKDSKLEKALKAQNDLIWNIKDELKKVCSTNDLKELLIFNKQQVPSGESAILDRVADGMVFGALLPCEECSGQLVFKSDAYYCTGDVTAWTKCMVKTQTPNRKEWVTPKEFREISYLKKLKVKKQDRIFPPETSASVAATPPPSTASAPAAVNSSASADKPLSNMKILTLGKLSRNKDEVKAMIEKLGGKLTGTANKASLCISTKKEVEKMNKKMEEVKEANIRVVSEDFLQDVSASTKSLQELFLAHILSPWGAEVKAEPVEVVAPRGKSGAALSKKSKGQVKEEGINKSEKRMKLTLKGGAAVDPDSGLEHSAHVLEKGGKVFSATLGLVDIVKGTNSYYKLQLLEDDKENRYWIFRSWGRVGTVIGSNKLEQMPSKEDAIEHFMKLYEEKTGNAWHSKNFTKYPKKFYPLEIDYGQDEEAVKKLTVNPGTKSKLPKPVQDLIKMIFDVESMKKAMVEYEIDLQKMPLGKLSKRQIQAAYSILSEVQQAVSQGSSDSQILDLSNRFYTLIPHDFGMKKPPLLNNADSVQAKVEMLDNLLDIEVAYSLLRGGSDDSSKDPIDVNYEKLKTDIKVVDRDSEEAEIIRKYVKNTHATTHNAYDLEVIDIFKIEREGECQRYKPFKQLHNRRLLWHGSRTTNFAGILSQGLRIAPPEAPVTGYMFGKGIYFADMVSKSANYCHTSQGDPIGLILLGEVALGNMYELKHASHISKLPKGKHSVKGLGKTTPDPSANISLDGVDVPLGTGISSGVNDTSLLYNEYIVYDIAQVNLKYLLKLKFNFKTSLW
T1 sequence (P09874 whole entry): as above

As for `Cc1nc2c(O)cccc2c(=O)[nH]1` [Compound A, 8-hydroxy-2-methyl-quinazolin-4-[3H]-one], the IC50 against human PARP-1 was 460 nM; against PARP [1], 318 nM; at PARP [2], 400 nM.
As to `NC(=O)c1cccc2cccc(C(=O)O)c12` [Compound B, 8-carboximido-napthalene-1-carboxylic acid], the IC50 on human PARP-1 (PARP-1 coated on plates overnight at 4° C., 25 μM biotinylated NAD, 100 μM unlabelled NAD, sheared DNA, read-out: Biotin Avidin PARP (IC50)) is 329 nM; at PARP [1], 334 nM; on PARP [2], 250 nM.
